Test results published in patent US12102607B2, “C5aR inhibitors for use in the treatment of chemotherapy-induced iatrogenic pain” (Dompe' Farmaceutici S.P.A., priority 2017, dated 2024).

What was measured:
[1] = tested on: paclitaxel-induced cold allodynia in male Balb/C mice; assay: Paclitaxel-induced cold allodynia, DF3966A; format: in vivo; conditions: 30 mg/kg/os twice daily day 1 to 14; days 3, 5, 7, 10 and 14
Description: (§1) For the experiments with DF3966A, animals were housed in the animal care facility of the Department of Pharmacy of the University of Naples, Italy, in a room with controlled temperature (22±1° C.), humidity (60±10%) and light (12 h per day); food and water were available ad libitum. All behavioural tests were performed between 9:00 AM and 5:00 PM, and the animals were used only once. Animal care and manipulations were conducted in conformity with International and National law and policies (EU Directive 2010/63/EU for animal experiments, ARRIVE guidelines and the Basel declaration including the 3R concept). The procedure reported here were approved by the Institutional Committee on the Ethics of Animal Experiments (CVS) of the University of Naples Federico II and by Ministero della Salute under protocol n. 2014-00884607.
The protocol used was performed according POLOMANO et al., 2001, adapted to mice. The animals received paclitaxel 4 mg/kg intraperitoneally (i.p.) for four alternate days (days 1, 3, 5, and 7). During treatment period, mechanical and cold allodynia were measured 4 hours after the injection of paclitaxel. […]
In the same apparatus of von Frey test, and nearly 15 minutes after the mechanical test, was performed the acetone test. […] All movements as licking, flinching or lifting of paw were recorded with a chronometer in a total testing time of 2 minutes.

[2] = tested on: paclitaxel-induced mechanical allodynia in male Balb/C mice; assay: Paclitaxel-induced mechanical allodynia, Dynamic Plantar Aesthesiometer, DF3966A; format: in vivo; conditions: 30 mg/kg/os twice daily day 1 to 14; days 3, 5, 7, 10 and 14
Description: as §1
The protocol used was performed according POLOMANO et al., 2001, adapted to mice. The animals received paclitaxel 4 mg/kg intraperitoneally (i.p.) for four alternate days (days 1, 3, 5, and 7). During treatment period, mechanical and cold allodynia were measured 4 hours after the injection of paclitaxel.
DF3966A was administrated 30 mg/kg/os from 1st at 14th day (twice daily; 8.00 am and 20.00 pm). […]
In DF3966A experiments, sensitivity to tactile stimulation was measured using the Dynamic Plantar Aesthesiometer (DPA, Ugo Basile, Italy). […]

C[C@H](c1ccc(Nc2nc(C(F)(F)F)cs2)cc1)c1nnn[nH]1 [DF3966A, 1-N-[4-[(1R)-1-(1H-tetrazol-5-yl)ethyl]phenyl}-4-(trifluoromethyl)-11,3-thiazol-2-amine]
cold allodynia vs vehicle control animals [1]: significant reduction of cold allodynia | mechanical allodynia vs vehicle control animals [2]: significant reduction of mechanical allodynia
